# PMC6268972, “Antiproliferative, Antimicrobial and Apoptosis Inducing Effects of Compounds Isolated from Inula viscosa” (Molecules, 2012)
# Counter-ions that a name gives are not always drawn.
# Key:
# [1] = test system: MCF-7 cells; assay: MTT antiproliferative activity assay, MCF-7; type: cell-based, human; settings: MTT, 48 h treatment, average of three replicates; for IC50: Homo sapiens, MCF7, read-out: IC50 MCF-7
# Method: (§1) Hep-2 (larynx carcinoma, ATCC: CCL-23), MCF-7 (breast epithelial adenocarcinoma, ATCC: HTB-22), and Vero (African green monkey kidney, ATCC: CCL-81) cell lines were kindly provided by Dr. Mona Hassuneh (Department of Biological Sciences, University of Jordan). Cells were grown in Minimum Essential Medium Eagle (Gibco, Paisley UK) supplemented with 10% heat inactivated fetal bovine serum (Gibco, Paisley UK), 29 μg/mL L-glutamine, and 40 μg/mL gentamicin. Cells were incubated in a humidified atmosphere of 5% CO2 at 37 °C.
# (§2) The antiproliferative activity of Inula viscosa compounds was measured using the MTT (3-(4,5-dimethylthiazol-2-yl)-2,5-diphenyltetrazolium bromide) assay (Promega, Madison, WI, USA). The assay detects the reduction of MTT by mitochondrial dehydrogenase to blue formazan product, which reflects the normal function of mitochondria and cell viability. Exponentially growing cells were washed and seeded at 17,000 cells/well for Hep-2 cell line and 11,000 cells/ well for MCF-7 cell line (in 200 μL of growth medium) in 96 well microplates (Nunc, Roskilde, Denmark). After 24 h incubation, a partial monolayer was formed then the media was removed and 200 μL of the medium containing the compound (initially dissolved in DMSO) were added and re-incubated for 48 h. Then 100 μL of the medium were aspirated and 15 μL of the MTT solution were added to the remaining medium (100 μL) in each well. After 4 h contact with the MTT solution, blue crystals were formed. One hundred μL of the stop solution were added and incubated further for 1 h.
# (§3) Reduced MTT was assayed at 550 nm using a microplate reader (Biotek, Winooski, VT, USA). Control groups received the same amount of DMSO (0.1%).Untreated cells were used as a negative control while, cells treated with vincristine sulfate were used as a positive control. Eight concentrations (150, 100, 50, 20, 10, 5, 2, and 1 μg/mL) were prepared from each compound and tested against the three cell lines. IC50 values were calculated as the concentrations that show 50% inhibition of proliferation on any tested cell line. Stock solutions of the compounds were dissolved in (DMSO) then diluted with the medium and sterilized using 0.2 μm membrane filters. The toxicity of DMSO was determined and the final dilution of compounds used for treating the cells contained not more than 0.1% (non toxic concentration) DMSO. IC50 values were reported as the average of three replicates. The antiproliferative effect of the tested compounds was determined by comparing the optical density of the treated cells against the optical density of the control (cells treated with media containing 0.1% DMSO).
# [2] = test system: Hep-2 cells; assay: MTT antiproliferative activity assay, Hep-2; type: cell-based; settings: MTT, 48 h treatment, average of three replicates; for IC50: Homo sapiens, HEp-2, read-out: IC50 Hep-2
# Method: as §1, §2, §3
# [3] = test system: Vero cells; assay: MTT antiproliferative activity assay, Vero; type: cell-based, African green monkey; settings: MTT, 48 h treatment, average of three replicates; for IC50: Chlorocebus sabaeus, Vero, read-out: IC50 Vero
# Method: as §1, §2, §3
# [4] = test system: Methicillin resistant Staphylococcus aureus (MRSA); assay: Microtiter plate dilution MIC, MRSA; type: cell-based; settings: clinical isolate, 24 h, 100% inhibition
# Method: (§4) The microbial strains used in this study were Escherichia coli (ATCC 10798), Salmonella typhimurium (ATCC14028), Methicillin resistant Staphylococcus aureus (MRSA, Clinical isolate), Bacillus cereus (Toxigenic strain TS), and Candida albicans (ATCC 90028). Bacterial strains were stocked onto nutrient agar slant at 4 °C, and Candida albicans was stocked onto malt agar slant at 4 °C.
# (§5) The microtiter plate dilution method was used to determine the MIC (minimum inhibitory concentration) of compounds under study. Sterile 96-well microplates (Nunc) were used for the assay. Stock compounds were dissolved in DMSO so that the final concentrations in micro wells were less than 1% DMSO and solvent controls were run at these concentrations. Positive controls of penicillin G and tetracycline (Oxoid, Hampshire, UK) were prepared at the following concentrations 2, 4, 8, 16, 31, 62.5, 125, and 250 μg/mL. 1% DMSO was used as a solvent control. Compounds were diluted to twice the desired initial test concentration (250 µg/mL) with Muller Hinton broth (MHB) (Oxoid). All wells, except the first were filled with MHB (50 μL). Compounds (100 μL) were added to the first well and serial two-fold dilutions were made down to the desired minimum concentration (2 μg/mL). An over-night culture of bacteria suspended in MHB was adjusted to turbidity equal to 0.5 McFarland standard. The plates were inoculated with bacterial suspension (50 μL/well) and incubated at 37 °C for 24 h. Then the turbidity was measured using micro-plate reader (Biotek) at 620 nm wavelength. The same procedure was used to determine the antifungal activity of compounds against Candida albicans. The medium used was malt extract broth. The yeast cells were suspended in 0.85% saline, with an optical density equivalent to 0.5 McFarland standard, and diluted 1:100 in malt extract broth to obtain the working concentration. After 24 h incubation with each compound, the turbidity was measured at 530 nm wavelength using a spectrophotometer (Biotek). Percentage inhibition for tested microorganisms was calculated using the following formula:
# (§6) MIC was determined as the lowest concentration of the compound that causes complete inhibition (100%) of each microorganism.
# [5] = test system: Escherichia coli; assay: Microtiter plate dilution MIC, E. coli; type: cell-based; settings: ATCC 10798, 24 h, 100% inhibition
# Method: as §4, §5, §6
# [6] = test system: Salmonella typhimurium; assay: Microtiter plate dilution MIC, S. typhimurium; type: cell-based; settings: ATCC14028, 24 h, 100% inhibition
# Method: as §4, §5, §6
# [7] = test system: Bacillus cereus; assay: Microtiter plate dilution MIC, B. cereus; type: cell-based; settings: Toxigenic strain TS, 24 h, 100% inhibition
# Method: as §4, §5, §6
# [8] = test system: Candida albicans; assay: Microtiter plate dilution MIC, C. albicans; type: cell-based; settings: ATCC 90028, malt extract broth, 24 h, 100% inhibition
# Method: as §4, §5, §6
# [9] = test system: MCF-7 cells; assay: TUNEL colorimetric apoptosis assay; type: cell-based, human; settings: 15 µg/mL, 28 h, compared with untreated cells
# Method: Apoptosis was detected using terminal deoxynucleotidyl transferase (TdT) mediated-16-deoxyuridine triphosphate (dUTP) Nick-End Labelling (TUNEL) system (Promega, Madison, WI, USA). MCF-7 cells cultured in 24 well plates were treated with 15 µg/mL of either 3-O-methylquercetin or 3,3′-di-O-methylquercetin for 28 h. The assay was conducted according to the manufacturer's instructions. Briefly, treated cells were fixed using 10% formalin followed by washing with phosphate buffer saline (PBS). Cells were then permeabilized using 0.2% triton X-100. Biotinylated dUTP in rTdT reaction mixture was added to label the fragmented DNA at 37 °C for one hour, followed by blocking endogenous peroxidases using 0.3% hydrogen peroxide. Streptavidin HRP (1:500 in PBS) was added and incubated at room temperature for 30 min. Finally, hydrogen peroxide and chromagen diaminobenzidine were used to visualize nuclei with fragmented DNAs under the light microscope (Novex, Arnhem, Holland). Cells treated with 40 nM vincristine sulfate were used as a positive control while untreated cells were used as a negative control.
# [10] = test system: MCF-7 cells; assay: Scanning electron microscopy of MCF-7 cells; type: cell-based, human; settings: 15 µg/mL compound (vincristin sulfate 40 nM), 48 h
# Method: MCF-7 cells were cultured in complete DMEM containing either 15 µg/mL of 3-O-methylquercetin or 3,3′-di-O-methylquercetin and incubated for 48 h in humidified CO2 incubator. Negative control cells were incubated with complete DMEM and positive control cells received complete DMEM containing 40 nM vincristin sulfate. Treated cells were fixed with 3% glutaraldehyde for 1.5 h followed by osmium tetroxide (2% in PBS) for 1 h. After fixation, cells were washed in PBS and sequentially dehydrated using 30%, 70%, and 100% ethanol. Fixed cells were attached to a metal stubs and sputter coated with platinum by using Emitech K550X coating unit (Qourum Technology, West Sussex, UK). The coated specimens were viewed using Inspect F50/FEG scanning electron microscope (FEI, Eindhoven, The Netherlands) at accelerating voltage of 2–5 kV. Bacillus cereus cells treated with 3,3′-di-O-methylquercetin for 24 h were collected by centrifugation and washed with sodium phosphate buffer. Following that, the samples were fixed in 2.5% glutaraldehyde in 0.1 M phosphate buffer, pH 7.3, at 4 °C overnight, and postfixed in 1% osmium tetroxide in the phosphate buffer for 1 h at room temperature. Bacterial cells were dehydrated with sequential ethanol concentrations (30–100%) and coated for the observations under scanning electron microscope.
# [11] = test system: Bacillus cereus; settings: cited from earlier work; for MIC against Bacillus cereus: previous studies ref 31
Molecule,IC50 MCF-7 [1],IC50 Hep-2 [2],IC50 Vero [3],Minimum inhibitory concentration (MIC) MRSA [4],Minimum inhibitory concentration (MIC) E.c [5],Minimum inhibitory concentration (MIC) S.t [6],Minimum inhibitory concentration (MIC) B.c [7],Minimum inhibitory concentration (MIC) C.a [8],further results
COc1c(-c2ccc(O)c(O)c2)oc2cc(O)cc(O)c2c1=O [3-O-Methylquercetin],,,,,,,,,"IC50 [1]: 11.2 ± 1.93 µg/mL; IC50 [2]: 26.1 ± 2.18 µg/mL; IC50 [3]: > 150 µg/mL; MIC ([4]; Staphylococcus aureus, MRSA, read-out: Minimum inhibitory concentration (MIC) MRSA): > 250 µg/mL; MIC ([5]; Escherichia coli, ATCC10798, read-out: Minimum inhibitory concentration (MIC) E.c): > 250 µg/mL; MIC ([6]; Salmonella enterica, ATCC 14028 / TYPHIMURIUM, read-out: Minimum inhibitory concentration (MIC) S.t): 125 µg/mL; MIC ([7]; Bacillus cereus, read-out: Minimum inhibitory concentration (MIC) B.c): 125 µg/mL; MIC ([8]; Candida albicans, ATCC90028, read-out: Minimum inhibitory concentration (MIC) C.a): 250 µg/mL; Apoptosis induction (DNA fragmentation, TUNEL) [9]: increase in the number of apoptotic cells with fragmented DNA; Cytomorphological alterations (scanning electron microscopy) [10]: cell shrinkage, membrane blebbing, loss of contact with neighboring cells, and formation of apoptotic bodies"
"CC[C@]1(O)C[C@H]2CN(CCc3c([nH]c4ccccc34)[C@@](C(=O)OC)(c3cc4c(cc3OC)N(C=O)[C@H]3[C@@](O)(C(=O)OC)[C@H](OC(C)=O)[C@]5(CC)C=CCN6CC[C@]43[C@@H]65)C2)C1 [Vincristine sulfate, reference compound]",,,,,,,,,"IC50 [1]: 10 ± 1.34 µg/mL; IC50 [2]: > 90 µg/mL; IC50 [3]: > 90 µg/mL; Cytomorphological alterations (scanning electron microscopy) [10]: morphological changes similar to those observed in cells treated with either 3-O-methylquercetin or 3,3′-di-O-methylquercetin"
C=C(C(=O)O)[C@@H]1CC[C@@]2(C)CC[C@@H](O)C(=C)C2C1 (some centres unmarked) [Viscic acid],>150 µg/mL,>150 µg/mL,>150 µg/mL,>250 µg/mL,>250 µg/mL,>250 µg/mL,>250 µg/mL,>250 µg/mL,
O=c1c(O[C@H]2OC[C@@H](O)[C@@H](O)[C@@H]2O)c(-c2ccc(O)c(O)c2)oc2cc(O)cc(O)c12 [quercetin-3-O-arabinoside],,,,,,,,,MIC against Bacillus cereus [11]: 350 µg/mL
O=c1c(O)c(-c2ccc(O)c(O)c2)oc2cc(O)cc(O)c12 [quercetin],,,,,,,,,MIC against Bacillus cereus [11]: 350 µg/mL
CC[C@H](CC[C@@H](C)[C@H]1CC[C@H]2[C@@H]3CC=C4C[C@@H](O[C@@H]5O[C@H](CO)[C@@H](O)[C@H](O)[C@H]5O)CC[C@]4(C)[C@H]3CC[C@]12C)C(C)C [β-Sitosteryl glucoside],>150 µg/mL,>150 µg/mL,>150 µg/mL,>250 µg/mL,>250 µg/mL,>250 µg/mL,>250 µg/mL,>250 µg/mL,
Quercetin-3-O-glycoside,,,,,,,,,Inhibition of Bacillus cereus (concentration) ([11]; previous studies ref 32): 50 µg/mL
Xepetin,>150 µg/mL,>150 µg/mL,>150 µg/mL,>250 µg/mL,>250 µg/mL,>250 µg/mL,>250 µg/mL,>250 µg/mL,
